Data published in patent US10112937B2, “P2X7 modulators and methods of use” (Janssen Pharmaceutica NV, priority 2013, dated 2018).

Target: human P2X7 (Homo sapiens (Human), UniProt Q99572)
Experiment: P2X7 antagonism in human PBMCs (IL-1β release after LPS + Bz-ATP, ELISA)
Format: cell-based
Settings: human PBMCs; for PBMC 1 μM (% control): test compound 1 μM

Chain of human P2X7 (Q99572 whole entry): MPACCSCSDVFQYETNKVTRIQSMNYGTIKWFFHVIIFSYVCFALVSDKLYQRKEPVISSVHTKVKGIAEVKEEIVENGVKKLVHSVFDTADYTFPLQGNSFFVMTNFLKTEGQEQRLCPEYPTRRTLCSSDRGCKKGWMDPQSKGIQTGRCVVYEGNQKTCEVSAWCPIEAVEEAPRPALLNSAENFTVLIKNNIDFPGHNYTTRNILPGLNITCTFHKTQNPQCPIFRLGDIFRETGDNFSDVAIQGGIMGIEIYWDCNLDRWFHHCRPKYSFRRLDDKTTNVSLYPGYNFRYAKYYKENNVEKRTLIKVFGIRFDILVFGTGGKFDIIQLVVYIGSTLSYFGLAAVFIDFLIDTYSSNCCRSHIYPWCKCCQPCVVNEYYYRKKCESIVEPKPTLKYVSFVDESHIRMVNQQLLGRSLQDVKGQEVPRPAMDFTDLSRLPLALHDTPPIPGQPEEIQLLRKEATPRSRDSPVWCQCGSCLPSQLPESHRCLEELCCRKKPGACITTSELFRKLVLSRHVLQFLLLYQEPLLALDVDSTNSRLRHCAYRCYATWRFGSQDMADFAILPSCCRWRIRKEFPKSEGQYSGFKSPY

PBMC 10 μM (% control) (test compound 10 μM) | SMILES | other results
77.7 % control | C[C@@H]1Cc2c(nnn2-c2ccn[nH]2)CN1C(=O)c1cccc(C(F)(F)F)c1F (single isomer, unassigned) [Example 348, (R*)-(2-fluoro-3-(trifluoromethyl)phenyl)(6-methyl-1-(1H-pyrazol-5-yl)-6,7-dihydro-1H-[1,2,3]triazolo[4,5-c]pyridin-5(4H)-yl)methanone] | –
16.2 % control | C[C@@H]1Cc2c(nnn2-c2ccn[nH]2)CN1C(=O)c1cccc(C(F)(F)F)c1Cl (single isomer, unassigned) [Example 350, (R*)-(2-chloro-3-(trifluoromethyl)phenyl)(6-methyl-1-(1H-pyrazol-5-yl)-6,7-dihydro-1H-[1,2,3]triazolo[4,5-c]pyridin-5(4H)-yl)methanone] | –
0.6 % control | C[C@H]1Cc2c(nnn2-c2ccn[nH]2)CN1C(=O)c1cccc(C(F)(F)F)c1Cl (single isomer, unassigned) [Example 351, (S*)-(2-chloro-3-(trifluoromethyl)phenyl)(6-methyl-1-(1H-pyrazol-5-yl)-6,7-dihydro-1H-[1,2,3]triazolo[4,5-c]pyridin-5(4H)-yl)methanone] | –
107.5 % control | Cc1cc(-n2nnc3c2CCN(C(=O)c2cc(C(F)(F)F)ccc2Cl)[C@@H]3C)ncc1F (single isomer, unassigned) [Example 353, (R*)-(2-chloro-5-(trifluoromethyl)phenyl)(1-(5-fluoro-4-methylpyridin-2-yl)-4-methyl-6,7-dihydro-1H-[1,2,3]triazolo[4,5-c]pyridin-5(4H)-yl)methanone] | –
83.4 % control | Cc1cc(-n2nnc3c2CCN(C(=O)c2cc(C(F)(F)F)ccc2Cl)[C@H]3C)ncc1F (single isomer, unassigned) [Example 354, (S*)-(2-chloro-5-(trifluoromethyl)phenyl)(1-(5-fluoro-4-methylpyridin-2-yl)-4-methyl-6,7-dihydro-1H-[1,2,3]triazolo[4,5-c]pyridin-5(4H)-yl)methanone] | –
−8.2 % control | Cc1ccnc(-n2nnc3c2CCN(C(=O)c2ccnc(C(F)(F)F)c2Cl)[C@@H]3C)c1 (single isomer, unassigned) [Example 359, (R*)-(3-chloro-2-(trifluoromethyl)pyridin-4-yl)(4-methyl-1-(4-methylpyridin-2-yl)-6,7-dihydro-1H-[1,2,3]triazolo[4,5-c]pyridin-5(4H)-yl)methanone] | –
−7.1 % control | Cc1ccnc(-n2nnc3c2CCN(C(=O)c2ccnc(C(F)(F)F)c2Cl)[C@H]3C)c1 (single isomer, unassigned) [Example 360, (S*)-(3-chloro-2-(trifluoromethyl)pyridin-4-yl)(4-methyl-1-(4-methylpyridin-2-yl)-6,7-dihydro-1H-[1,2,3]triazolo[4,5-c]pyridin-5(4H)-yl)methanone] | –
108.2 % control | Cc1cc(-n2nnc3c2CCN(C(=O)c2ccc(Cl)c(C(F)(F)F)c2)[C@@H]3C)ncc1F (single isomer, unassigned) [Example 365, (R*)-(4-chloro-3-(trifluoromethyl)phenyl)(1-(5-fluoro-4-methylpyridin-2-yl)-4-methyl-6,7-dihydro-1H-[1,2,3]triazolo[4,5-c]pyridin-5(4H)-yl)methanone] | –
2.0 % control | Cc1cc(-n2nnc3c2CCN(C(=O)c2ccc(Cl)c(C(F)(F)F)c2)[C@H]3C)ncc1F (single isomer, unassigned) [Example 366, (S*)-(4-chloro-3-(trifluoromethyl)phenyl)(1-(5-fluoro-4-methylpyridin-2-yl)-4-methyl-6,7-dihydro-1H-[1,2,3]triazolo[4,5-c]pyridin-5(4H)-yl)methanone] | –
74.5 % control | Cc1cc(-n2nnc3c2CCN(C(=O)c2ccnc(C(F)(F)F)c2F)[C@H]3C)ncc1F (single isomer, unassigned) [Example 369, (S*)-(3-fluoro-2-(trifluoromethyl)pyridin-4-yl)(1-(5-fluoro-4-methylpyridin-2-yl)-4-methyl-6,7-dihydro-1H-[1,2,3]triazolo[4,5-c]pyridin-5(4H)-yl)methanone] | –
96.3 % control | Cc1ccnc(-n2nnc3c2CCN(C(=O)c2cccc(OC(F)(F)F)c2)[C@@H]3C)c1 (single isomer, unassigned) [Example 376, (R*)-(4-methyl-1-(4-methylpyridin-2-yl)-6,7-dihydro-1H-[1,2,3]triazolo[4,5-c]pyridin-5(4H)-yl)(3-(trifluoromethoxy)phenyl)methanone] | –
113.7 % control | C[C@H]1c2nnn(-c3cccc(C(F)(F)F)n3)c2CCN1C(=O)c1cccc(C(F)(F)F)c1Cl (single isomer, unassigned) [Example 380, (S*)-(2-chloro-3-(trifluoromethyl)phenyl)(4-methyl-1-(6-(trifluoromethyl)pyridin-2-yl)-6,7-dihydro-1H-[1,2,3]triazolo[4,5-c]pyridin-5(4H)-yl)methanone] | –
87.3 % control | Cc1cc(-n2nnc3c2CCN(C(=O)c2cccc(C(F)(F)F)c2Cl)[C@H]3C)ncc1F (single isomer, unassigned) [Example 383, (S*)-(2-chloro-3-(trifluoromethyl)phenyl)(1-(5-fluoro-4-methylpyridin-2-yl)-4-methyl-6,7-dihydro-1H-[1,2,3]triazolo[4,5-c]pyridin-5(4H)-yl)methanone] | –
107.5 % control | Cc1cccc(-n2nnc3c2CCN(C(=O)c2cccc(C(F)(F)F)c2F)[C@@H]3C)n1 (single isomer, unassigned) [Example 386, (R*)-(2-fluoro-3-(trifluoromethyl)phenyl)(4-methyl-1-(6-methylpyridin-2-yl)-6,7-dihydro-1H-[1,2,3]triazolo[4,5-c]pyridin-5(4H)-yl)methanone] | –
88.9 % control | Cc1cccc(-n2nnc3c2CCN(C(=O)c2cccc(Cl)c2Cl)[C@@H]3C)n1 (single isomer, unassigned) [Example 389, (R*)-(2,3-dichlorophenyl)(4-methyl-1-(6-methylpyridin-2-yl)-6,7-dihydro-1H-[1,2,3]triazolo[4,5-c]pyridin-5(4H)-yl)methanone] | –
6.5 % control | Cc1cccc(-n2nnc3c2CCN(C(=O)c2cccc(Cl)c2Cl)[C@H]3C)n1 (single isomer, unassigned) [Example 390, (S*)-(2,3-dichlorophenyl)(4-methyl-1-(6-methylpyridin-2-yl)-6,7-dihydro-1H-[1,2,3]triazolo[4,5-c]pyridin-5(4H)-yl)methanone] | –
112.1 % control | Cc1ccnc(-n2nnc3c2CCN(C(=O)c2cccc(Cl)c2Cl)[C@@H]3C)n1 (single isomer, unassigned) [Example 391, (R*)-(2,3-dichlorophenyl)(4-methyl-1-(4-methylpyrimidin-2-yl)-6,7-dihydro-1H-[1,2,3]triazolo[4,5-c]pyridin-5(4H)-yl)methanone] | –
6.2 % control | Cc1ccnc(-n2nnc3c2CCN(C(=O)c2cccc(Cl)c2Cl)[C@@H]3C)c1 (single isomer, unassigned) [Example 394, (R*)-(2,3-dichlorophenyl)(4-methyl-1-(4-methylpyridin-2-yl)-6,7-dihydro-1H-[1,2,3]triazolo[4,5-c]pyridin-5(4H)-yl)methanone] | –
– | Cc1ccnc(-n2nnc3c2CCN(C(=O)c2cccc(C(F)(F)F)c2Cl)[C@H]3C)n1 (single isomer, unassigned) [Example 439, (S*)-(2-chloro-3-(trifluoromethyl)phenyl)(4-methyl-1-(4-methylpyrimidin-2-yl)-6,7-dihydro-1H-[1,2,3]triazolo[4,5-c]pyridin-5(4H)-yl)methanone] | PBMC 10 μM (% control) (10 μM test compound, LPS + Bz-ATP): 1.2 % control
– | O=C(c1cccc(Cl)c1Cl)N1CCc2c(ncn2-c2ccccc2)C1 [Example 3, (2,3-Dichlorophenyl)(1-phenyl-6,7-dihydro-1H-imidazo[4,5-c]pyridin-5(4H)-yl)methanone] | PBMC 1 μM (% control): 23.0 % control
−3.7 % control | O=C(c1cccc(Cl)c1Cl)N1CCc2c(ncn2-c2ccccn2)C1 [Example 4, (2,3-Dichlorophenyl)(1-(pyridin-2-yl)-6,7-dihydro-1H-imidazo[4,5-c]pyridin-5(4H)-yl)methanone] | –
3.7 % control | CC1c2ncn(-c3ccc(F)cn3)c2CCN1C(=O)c1cccc(C(F)(F)F)c1Cl (stereo not drawn) [Example 11, (2-Chloro-3-(trifluoromethyl)phenyl)(1-(5-fluoropyridin-2-yl)-4-methyl-6,7-dihydro-1H-imidazo[4,5-c]pyridin-5(4H)-yl)methanone] | –
– | CC1c2ncn(-c3ccccn3)c2CCN1C(=O)c1cccc(C(F)(F)F)c1Cl (stereo not drawn) [Example 17, (2-Chloro-3-(trifluoromethyl)phenyl)(4-methyl-1-(pyridin-2-yl)-6,7-dihydro-1H-imidazo[4,5-c]pyridin-5(4H)-yl)methanone] | PBMC 1 μM (% control): 6.5 % control
– | CC1c2ncn(-c3ccc(F)cc3)c2CCN1C(=O)c1cccc(C(F)(F)F)c1Cl (stereo not drawn) [Example 18, (2-Chloro-3-(trifluoromethyl)phenyl)(1-(4-fluorophenyl)-4-methyl-6,7-dihydro-1H-imidazo[4,5-c]pyridin-5(4H)-yl)methanone] | PBMC 1 μM (% control): 5.3 % control
8.6 % control | CC1c2ncn(-c3ccc(F)cc3)c2CCN1C(=O)c1cccc(C(F)(F)F)c1F (stereo not drawn) [Example 20, (2-Fluoro-3-(trifluoromethyl)phenyl)(1-(4-fluorophenyl)-4-methyl-6,7-dihydro-1H-imidazo[4,5-c]pyridin-5(4H)-yl)methanone] | –
– | O=C(c1cccc(C(F)(F)F)c1Cl)N1CCc2c(ncn2-c2ccccc2)C1CO (stereo not drawn) [Example 30, (5-{[2-Chloro-3-(trifluoromethyl)phenyl]carbonyl}-1-phenyl-4,5,6,7-tetrahydro-1H-imidazo[4,5-c]pyridin-4-yl)methanol] | PBMC 1 μM (% control): 87.0 % control
−9.1 % control | Cc1nc2c(n1-c1ccccc1)CCN(C(=O)c1cccc(C(F)(F)F)c1Cl)C2 [Example 37, (2-Chloro-3-(trifluoromethyl)phenyl)(2-methyl-1-phenyl-6,7-dihydro-1H-imidazo[4,5-c]pyridin-5(4H)-yl)methanone] | –
